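Following 48 hours of exposure in 96-well plates, responses at five concentrations were used to interpolate endpoints linearly. GI50: concentration for 50% inhibition of growth. TGI is the concentration that stops growth completely.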
Legend:
Test in all cases: inhibition of tumour cell growth, NCI panel, 48 h
SK-MEL-28 melanoma = tested on: SK-MEL-28 melanoma
NCI-H226 lung = tested on: NCI-H226 lung
CCRF-CEM leukemia = tested on: CCRF-CEM leukemia
UACC-257 melanoma = tested on: UACC-257 melanoma
MDA-MB-231 breast = tested on: MDA-MB-231 breast
SR leukemia = tested on: SR leukemia
NCI-H23 lung = tested on: NCI-H23 lung
UO-31 renal = tested on: UO-31 renal
SF-268 CNS = tested on: SF-268 CNS
BT-549 breast = tested on: BT-549 breast
IGROV1 ovarian = tested on: IGROV1 ovarian
HCC-2998 colon = tested on: HCC-2998 colon
OVCAR-4 ovarian = tested on: OVCAR-4 ovarian
DU-145 prostate = tested on: DU-145 prostate
HL-60(TB) leukemia = tested on: HL-60(TB) leukemia
DLD-1 colon = tested on: DLD-1 colon
MOLT-4 leukemia = tested on: MOLT-4 leukemia
U251 CNS = tested on: U251 CNS
SNB-75 CNS = tested on: SNB-75 CNS

Work on `C[CH2][Sn]([CH2]C)([O]C(=O)c1cccc(OC)c1)[O][Sn]([CH2]C)([CH2]C)[O]C(=O)c1cccc(OC)c1` yielded a GI50 (SK-MEL-28 melanoma) of 16.3 µM, a TGI (SK-MEL-28 melanoma) of 35.9 µM and a GI50 (NCI-H226 lung) of 18.4 µM. The TGI (NCI-H226 lung) was 33.2 µM, the GI50 (CCRF-CEM leukemia) was 3.17 µM and the TGI (CCRF-CEM leukemia) was 17.7 µM. The GI50 (UACC-257 melanoma) was 17.2 µM, the TGI (UACC-257 melanoma) was 34.6 µM and the GI50 (MDA-MB-231 breast) was 16 µM. The TGI (MDA-MB-231 breast) was 33.5 µM, the GI50 (SR leukemia) was 26.3 µM and the TGI (SR leukemia) was over 100 µM. For the same molecule, the GI50 (NCI-H23 lung) was 17.6 µM, the TGI (NCI-H23 lung) was 36.2 µM and the GI50 (UO-31 renal) was 34 µM. The TGI (UO-31 renal) was over 53.5 µM, the GI50 (SF-268 CNS) was 23.2 µM and the TGI (SF-268 CNS) was over 56.6 µM. It also gave a GI50 (BT-549 breast) of 15.4 µM, a TGI (BT-549 breast) of 29.4 µM and a GI50 (IGROV1 ovarian) of over 100 µM. It also gave a TGI (IGROV1 ovarian) of over 100 µM, a GI50 (HCC-2998 colon) of over 76 µM and a TGI (HCC-2998 colon) of over 100 µM. It also gave a GI50 (OVCAR-4 ovarian) of 17.9 µM, a TGI (OVCAR-4 ovarian) of 35.3 µM and a GI50 (DU-145 prostate) of over 100 µM. For the same molecule, the TGI (DU-145 prostate) was over 100 µM, the GI50 (HL-60(TB) leukemia) was 19.2 µM and the TGI (HL-60(TB) leukemia) was 70.9 µM. For the same molecule, the GI50 (DLD-1 colon) was 14.3 µM, the TGI (DLD-1 colon) was 29.6 µM and the GI50 (MOLT-4 leukemia) was 27.9 µM. For the same molecule, the TGI (MOLT-4 leukemia) was over 72.4 µM, the GI50 (U251 CNS) was 18.6 µM and the TGI (U251 CNS) was 35.1 µM. It also gave a GI50 (SNB-75 CNS) of 14.6 µM and a TGI (SNB-75 CNS) of 42.2 µM.

— PubChem BioAssay (NCI)
